Reference: patent publication US6380238B1, “Indoline derivatives as 5-HT2B and or 5-HTC receptor ligands” (Vernalis Research Limited, priority 1998, dated 2002)
Counter-ions that a name gives are not always drawn. Like-named read-outs stand apart in the source and are kept apart here.

Tests used:
5-HT2A receptor = 5-HT2A receptor (Homo sapiens, UniProt P28223); experiment: Functional activity, FLIPR calcium assay in CHO cells expressing human 5-HT2A; assay type: cell-based; design: expressed in transfected cells; host or cells: CHO cells; details: for Emax: CHO, read-out: h5-HT2A Relative Efficacy (%)
Description: (§1) The functional activity of compounds of formula (I) was assayed using a Fluorimetric Imaging Plate reader (FLIPR). CHO cells expressing the human 5-HT2C or human 5-HT2A receptors were counted and plated into standard 96 well microtitre plates on the day before testing to give a confluent monolayer. The cells were then dye loaded with the calcium sensitive dye, Fluo-3-AM. Unincorporated dye was removed using an automated cell washer to leave a total volume of 100 μL/well of assay buffer (Hanks balanced salt solution containing 20 mM Hepes and 2.5 mM probenecid). The drug (dissolved in 50 μL of the assay buffer) was added at a rate of 70 μL/sec to each well of the FLIPR 96 well plate during fluorescence measurements. The measurements were taken at 1 sec intervals and the maximum fluorescent signal was measured (approx 10-15 secs after drug addition) and compared with the response produced by 10 μM 5-HT (defined as 100%) to which it was expressed as a percentage response (relative efficacy). Dose response curves were constructed using Graphpad Prism (Graph Software Inc.).

5-HT2C receptor = target: T1, 5-HT2C receptor (Homo sapiens, UniProt P28335); experiment: Functional activity, FLIPR calcium assay in CHO cells expressing human 5-HT2C; assay type: cell-based; design: expressed in transfected cells; host or cells: CHO cells; details: for Emax: CHO, read-out: h5-HT2C Relative Efficacy (%)
T1 sequence (P28335 33-458): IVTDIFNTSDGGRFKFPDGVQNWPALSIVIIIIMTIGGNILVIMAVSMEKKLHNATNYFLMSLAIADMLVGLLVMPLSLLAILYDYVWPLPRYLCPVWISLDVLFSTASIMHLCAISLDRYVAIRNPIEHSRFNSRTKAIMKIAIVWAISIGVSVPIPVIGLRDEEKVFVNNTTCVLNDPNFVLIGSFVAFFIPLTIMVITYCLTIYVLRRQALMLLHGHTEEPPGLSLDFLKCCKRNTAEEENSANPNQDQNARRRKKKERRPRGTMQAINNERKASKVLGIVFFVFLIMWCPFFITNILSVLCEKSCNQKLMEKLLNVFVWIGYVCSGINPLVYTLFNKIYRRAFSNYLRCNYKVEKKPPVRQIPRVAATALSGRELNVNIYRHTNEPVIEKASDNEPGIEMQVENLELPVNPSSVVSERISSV
Description: as §1

[1] = FLIPR, CHO cells, Fluo-3-AM, read-out: h5-HT2C EC50

5-HT2A receptor, sequence (P28223 whole entry): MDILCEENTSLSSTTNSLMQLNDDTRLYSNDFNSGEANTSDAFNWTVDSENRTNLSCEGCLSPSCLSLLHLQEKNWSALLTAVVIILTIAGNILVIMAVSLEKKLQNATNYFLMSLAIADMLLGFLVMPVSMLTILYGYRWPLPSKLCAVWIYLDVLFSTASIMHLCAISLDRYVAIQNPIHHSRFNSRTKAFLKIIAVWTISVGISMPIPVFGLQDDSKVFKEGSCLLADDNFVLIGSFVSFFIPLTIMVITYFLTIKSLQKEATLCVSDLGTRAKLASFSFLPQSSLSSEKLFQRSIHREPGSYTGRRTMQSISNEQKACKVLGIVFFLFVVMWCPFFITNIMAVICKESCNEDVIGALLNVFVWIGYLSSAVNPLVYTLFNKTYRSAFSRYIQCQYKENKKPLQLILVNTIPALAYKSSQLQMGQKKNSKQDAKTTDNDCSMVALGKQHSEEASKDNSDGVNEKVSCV

Row | SMILES | melting point | other results
1 | C[C@H](N)CN1CCc2ccc(-c3ccccc3)cc21.O=C(O)/C=C/C(=O)O | 153 to 154 °C | 
2 | CC(N)CN1CCc2ccc(OCc3ccccc3)cc21 (stereo not shown) | 178 to 179 °C | 
3 | Cc1ccc2c(c1)N(CC(C)N)CC2 (stereo not shown) (as salt: HCl) | 178 to 179 °C | 
4 | CC(N)CN1CCc2c(OCc3ccccc3)cccc21 (stereo not shown) (as salt: HCl) | 188 to 190 °C | 
5 | C[C@@H](CN1CCc2ccc(Br)cc21)NCC1CC1 (as salt: HCl) | 155 to 156 °C | 
6 | CC(C)CN[C@@H](C)CN1CCc2ccc(Br)cc21 (as salt: HCl) | 151 to 153 °C | 
7 | CC(C)CCN[C@@H](C)CN1CCc2ccc(Br)cc21 (as salt: HCl) | 161 to 163 °C | 
8 | C[C@@H](CN1CCc2ccc(Br)cc21)NCC1CCCCC1 (as salt: HCl) | 208 to 210 °C | 
9 | C[C@@H](CN1CCc2ccc(Br)cc21)NCc1ccncc1 (as salt: HCl) | 202 to 204 °C | 
10 | CCC(N)CN1CCc2ccc(Cl)cc21 (stereo not shown) (as salt: HCl) | 188 to 192 °C | 
11 | C[C@@H](N)CN1CCc2ccc(Cl)c(Cl)c21 (as salt: fumarate) | 213 to 214 °C | 
12 | COc1cccc2c1N(C[C@H](C)N)CC2 (as salt: fumarate) | 155 to 156 °C (dec.) | 
13 | CN(C)CCN1CCc2ccc(Cl)cc21 (as salt: fumarate) | 144 to 146 °C | 
14 | CC(N)CN1CCc2ccc(C(F)(F)F)cc21 (stereo not shown) (as salt: fumarate) | 154 to 158 °C | 
15 | CC(N)CN1CCc2cc(OCc3ccccc3)ccc21 (stereo not shown) (as salt: fumarate) (hydrate or solvate) | 143 to 144 °C | 
16 | C[C@H](N)CN1CCc2ccc(F)cc21 (as salt: fumarate) [Example 9] | 150 to 153 °C | 
17 | COc1ccc2c(c1)N(C[C@H](C)N)CC2 (as salt: fumarate) [Example 13] | 175 to 176 °C | 
18 | Cc1cc2c(cc1Cl)N(C[C@H](C)N)CC2 (as salt: fumarate) [Example 14] | 172 to 174 °C | 
19 | C[C@H](N)CN1CCc2cc(F)cc(Cl)c21 (as salt: fumarate) [Example 17] | 195 to 196 °C | 
20 | C[C@@H](N)CN1CCc2cccc(Br)c21 (as salt: fumarate) [Example 19] | 197 °C | 
21 | C[C@H](N)CN1CCc2cccc(Br)c21 (as salt: fumarate) [Example 20] | 202 to 204 °C | 
22 | C[C@H](N)CN1CCc2cc(F)c(F)cc21 (as salt: fumarate) [Example 22] | 165 °C (dec.) | 
23 | C[C@H](N)CN1CCc2ccc(Cl)c(Cl)c21 (as salt: fumarate) [Example 23] | 176 to 178 °C | 
24 | C[C@H](N)CN1CCc2ccc(C(F)(F)F)cc21 (as salt: fumarate) [Example 24] | 197 to 199 °C | 

Row | SMILES | melting point | other results
25 | C[C@H](N)CN1CCc2cc(F)c(Br)cc21 (as salt: fumarate) [Example 25] | 195 to 196 °C | 
26 | C[C@@H](N)CN1CCc2ccc(C(F)(F)F)cc21 (as salt: fumarate) [Example 26] | 196 to 197 °C | 
27 | C[C@H](N)CN1CCc2cc(Cl)ccc21 (as salt: fumarate) [Example 28] | 207 to 210 °C | 
28 | C[C@H](N)CN1CCc2cc(F)ccc21 (as salt: fumarate) [Example 29] | 175 to 176 °C | 
29 | CSc1cc2c(cc1F)CCN2CC(C)N (stereo not shown) (as salt: fumarate) [Example 30] | 96 to 100 °C | 
30 | CCSc1cc2c(cc1F)CCN2C[C@H](C)N (as salt: fumarate) [Example 31] | 164 to 168 °C | 
31 | Cc1cccc2c1CCN2C[C@H](C)N (as salt: fumarate) [Example 32] | 161 to 162 °C | 
32 | C[C@H](N)CN1CCc2c(F)cccc21 (as salt: fumarate) [Example 35] | 167 to 168 °C | 
33 | CCc1cccc2c1N(C[C@H](C)N)CC2 (as salt: fumarate) [Example 37] | 182 to 183 °C | 
34 | C[C@H](N)CN1CCc2c(Cl)cccc21 (as salt: fumarate) [Example 38] | 190 to 192 °C | 
35 | CCCSc1ccc2c(c1)N(C[C@H](C)N)CC2 (as salt: fumarate) [Example 41] | 147 to 148 °C | 
36 | CC(C)Sc1ccc2c(c1)N(C[C@H](C)N)CC2 (as salt: fumarate) [Example 42] | 164 to 165 °C | 
37 | C[C@H](N)CN1CCc2ccc(-c3cccnc3)cc21 (as salt: fumarate) [Example 47] | 155 °C (dec.) | 
38 | C[C@H](N)CN1CCc2ccc(N3CCOCC3)cc21 (as salt: fumarate) [Example 49, (S)-1-[6-(4-Morpholinyl)indolin-1-yl]-2-propylamine Fumarate] | 188 to 191 °C (dec.) | 
39 | NCCN1CCc2ccc(Br)cc21 (as salt: fumarate) [Example 50, 2-(6-Bromoindolin-1-yl)-1-ethylamine Fumarate] | 203 to 206 °C | 
40 | NCCN1CCc2ccc(Cl)cc21 (as salt: fumarate) [Example 51, 2-(6-Chloroindolin-1-yl)-1-ethylamine Fumarate] | 195 to 196 °C | 
41 | C[C@H](N)CN1CCc2cc(F)c(C(F)(F)F)cc21 (as salt: fumarate) [Example 60, (S)-1-(5-Fluoro-6-trifluoromethylindolin-1-yl)-2-propylamine Fumarate] | 190 to 192 °C | 
42 | C[C@H](N)CN1CCc2cc(F)c(I)cc21 (as salt: fumarate) [Example 61, (S)-1-(5-Fluoro-6-iodoindolin-1-yl)-2-propylamine Fumarate] | 185 to 187 °C | 
43 | CC(N)CN1CCc2ccc(Cl)cc21 (racemic) (as salt: hydrochloride) [Example 1, (RS)-1-(6-Chloroindolin-1-yl)-2-propylamine Hydrochloride] | 262 °C | 
44 | COc1ccc2c(c1)N(CC(C)N)CC2 (racemic) (as salt: hydrochloride) [Example 2, (RS)-1-(6-Methoxyindolin-1-yl)-2-propylamine Hydrochloride] | 142 to 143 °C | 
45 | C[C@H](N)CN1CCc2ccc(N3CCOCC3)cc21 [Example 49, (S)-1-[6-(4-Morpholinyl)indolin-1-yl]-2-propylamine Fumarate] |  | Emax (5-HT2A receptor): 5%; Emax (5-HT2C receptor): 69%; EC50 (5-HT2C receptor; [1]): 5480 nM
46 | NCCN1CCc2ccc([N+](=O)[O-])cc21 [Example 53, 2-(6-Nitroindolin-1-yl)-1-ethylamine Fumarate] |  | Emax (5-HT2A receptor): 20%; EC50 (5-HT2A receptor; FLIPR, CHO cells, Fluo-3-AM, read-out: h5-HT2A EC50): 2310 nM; Emax (5-HT2C receptor): 86%; EC50 (5-HT2C receptor; [1]): 266 nM
47 | C[C@H](N)CN1CCc2cc(F)c(I)cc21 [Example 61, (S)-1-(5-Fluoro-6-iodoindolin-1-yl)-2-propylamine Fumarate] |  | EC50 (5-HT2A receptor): 2180 nM; Emax (5-HT2A receptor): 49%; EC50 (5-HT2C receptor): 26 nM; Emax (5-HT2C receptor): 68%
48 | Cc1ccc2c(c1)N(C[C@H](C)N)CC2 [Example 64, (S)-1-(6-Methylindolin-1-yl)-2-propylamine Fumarate] |  | Emax (5-HT2A receptor): 30%; EC50 (5-HT2C receptor): 303 nM; Emax (5-HT2C receptor): 66%
